Here are results for 1 substance from publication PMC4872164, “Therapeutic Blockade of Immune Complex-Mediated Glomerulonephritis by Highly Selective Inhibition of Bruton’s Tyrosine Kinase” (Scientific Reports, 2016).

The assay concerns the target Bruton's tyrosine kinase (BTK) (Homo sapiens, UniProt Q06187). Description: TR-FRET LanthaScreen binding assay (affinity, kinact/Ki […] ^-1 s^-1); BTK enzyme IC50; co-crystallization and mass spectrometry (not shown). The format is biochemical.

Chain of Bruton's tyrosine kinase (BTK) (Q06187 2-659): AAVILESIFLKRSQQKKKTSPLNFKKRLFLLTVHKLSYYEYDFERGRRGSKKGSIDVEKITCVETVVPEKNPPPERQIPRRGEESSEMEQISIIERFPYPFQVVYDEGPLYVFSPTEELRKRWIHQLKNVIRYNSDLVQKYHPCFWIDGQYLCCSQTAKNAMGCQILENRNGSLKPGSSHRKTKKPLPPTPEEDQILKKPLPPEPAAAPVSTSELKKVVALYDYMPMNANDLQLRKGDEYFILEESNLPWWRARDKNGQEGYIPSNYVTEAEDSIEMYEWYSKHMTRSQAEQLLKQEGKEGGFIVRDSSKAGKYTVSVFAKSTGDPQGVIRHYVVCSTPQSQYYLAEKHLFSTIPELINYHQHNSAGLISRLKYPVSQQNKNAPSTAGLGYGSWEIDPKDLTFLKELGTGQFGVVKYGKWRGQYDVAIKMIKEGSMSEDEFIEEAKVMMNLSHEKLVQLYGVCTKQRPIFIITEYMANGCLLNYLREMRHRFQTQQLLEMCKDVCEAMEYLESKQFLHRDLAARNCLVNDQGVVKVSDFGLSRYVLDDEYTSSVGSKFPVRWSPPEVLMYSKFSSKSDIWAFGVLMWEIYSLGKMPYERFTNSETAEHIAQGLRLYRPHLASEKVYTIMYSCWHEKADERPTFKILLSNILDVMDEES

BI-BTK-1 yielded an IC50 of 0.9 nM.
